Results: patent US7524503B2, “Human cytomegalovirus (HCMV) cytotoxic T cell epitopes, polyepitopes compositions comprising same and diagnostic and prophylactic and therapeutic uses therefor” (priority 2001, dated 2009)
Values joined by “and” are separate entries in the source; they are usually repeats but may differ in a detail not shown here. Equal values may be shown once. Read-outs that look alike come from different tables or passages of the source.

Columns and labels:
Type in all cases: cell-based, human
CD4+ T cells = assay: CD4+/CD8+ analysis of 20-mer peptides (intracellular IFN-γ staining or depletion ELISPOT)
Experimental: (§1) To determine whether a particular 20-mer peptide contained either a CD4^+- or CD8^+-restricted epitope, or both, CD4^+/CD8^+ cell depletion ELISPOT assays were performed on PBMC from healthy virus carriers. For any one experiment, three populations of cells were used: a) CD8^+-depleted PBMC, b) CD4^+-depleted PBMC, and c) non-depleted PBMC. These populations of cells were tested concurrently with the same peptides in a conventional ELISPOT assay as described herein above. DYNABEADS M-450 (Dynal, Oslo, Norway) that bound specifically to CD4^+- or CD8^+ cells were used to perform the depletion essentially according to manufacturers instructions. Beads were washed twice in cold PBS supplemented with 2% FCS using magnetic isolation. The requisite number of cells was resuspended in cold PBS supplemented with 2% FCS, added to the beads and then incubated at 4° C., in the dark, for 30 mins (CD8^+ beads) or 60 mins (CD4^+ beads). Populations were depleted of CD4^+ or CD8^+ cells using magnetic separation. After depletion, the non-attached cells were removed and washed once in growth medium, counted and used in conventional ELISPOT assay. Depleted cells were used at 1.7×10^5 cells per well and the non-depleted population was used at the standard 2.5×10^5 cells per well. After the depletion step, each respective cell population was assessed for the purity of CD4^+ and CD8^+ T cells by three-colour flow cytometry. Samples of depleted cell populations were stained with anti-CD3 antibody directly conjugated to fluorescein isothiocyanate (FITC), anti-CD4 antibody conjugated with phycoerythrin (PE) fluorochrome, and anti-CD8 antibody conjugated with Tricolor fluorochrome (described below). The percent of CD3^+/CD4^+ cells present within the CD8^+-depleted population and the percent of CD3^+/CD8^+ cells present within the CD4^+-depleted populations were assessed on FACSCalibur cytometer (Becton Dickinson). The purity of each population was greater than 90% and the results from the ELISPOT assays are expressed as the percentage of CD4+ or CD8^+ cells within the depleted populations that responded toward each peptide by producing IFN-γ.
(§2) PBMCs were incubated at 37° C. in RPMI+10% FCS with and without 10 μg/ml peptides for 6 hours. Golgiplug™ (Pharmingen, San Diego, Calif., USA) was added to the samples according to manufacturer's instructions during the second hour of incubation and cells activated with 25 ng/ml phorbol 12-myristidate 13-acetate (PMA; Sigma-Aldrich Co, St. Louis Mo.) and 1 μg/ml iomomycin (Sigma) acted as a positive control. Following the incubation, 1×10^6 cells/sample were washed and resuspended in staining buffer consisting of PBS with GolgiPlug™, 3% FCS and sodium azide. Cells were then stained with FITC conjugated anti-CD3-FITC (UCHT1, Immunotech, Marseille, France), and either Tricolor (TRI) conjugated anti-CD4 (S3.5, Caltag, Burlingame, Calif.) or anti-CD8 (3B5, Caltag) for 30 minutes, 4° C. in the dark. The cells were fixed for 20 min at 4° C. with Cytofix/Cytoperm™ (BD Biosciences) and resuspended in Perm/Wash™ permeabilization buffer (BD Biosciences) according to manufacturers protocol. Fixed cells were stained with phycoerythrin (PE) conjugated anti-human IFN-γ (B27, Pharmingen) for 30 min at 4° C. in the dark. As a negative control, cells were stained with appropriate isotype matched control antibodies. Cells were washed twice in permeabilization buffer and resuspended in staining buffer before analysis by three-colour flow cytometry on a FACSCalibur cytometer (BD Biosciences). All data analysis was carried out using FlowJo software (Tree Star, Inc. San Carlos, CA).
(§3) When using 20-mer peptides to map epitopes by ELISPOT, it is possible that some responses may be MHC class-II restricted, and not necessarily restricted through HLA class I alleles. It was evident throughout this study that some epitopes identified using ELISPOT could not be confirmed using cytotoxicity analysis. […]

CD8+ T cells = assay: as above
Experimental: as §1, §2, §3

[1] = tested on: PBMC from healthy HCMV seropositive donors; assay: IFN-γ ELISPOT assay; conditions: for ELISPOT Responses (SFC/10^6 PBMC): peptide 10 μg/ml
Experimental: ELISPOT assay was used to assess whether stimulation of PBMC from a large panel of seropositive donors with HCMV peptides could induce IFN-γ expression in T cells. Briefly, a 96-well nitrocellulose plate (Multiscreen, Millipore) was coated overnight at 4° C. with mouse monoclonal antibody anti-IFN-γ IgG1 (10 μg/ml; Mabtech Nacka, Sweden). The plate was then washed six times in Phosphate Buffered Saline (PBS) and blocked for 1 hour at 37° C. with PBS supplemented with 5% FCS. The blocking solution was removed and PBMC from healthy HCMV seropositive donors were added at a concentration of 2.5×10^5 cells per well in growth medium. These cells were incubated for 18 h at 37° C. in a 5% CO2 atmosphere in the presence of synthetic peptides from HCMV antigens (10 μg/ml). After incubation, the plate was washed three times with PBS supplemented with 0.05% Tween, followed by three washes with PBS alone. Biotinylated anti-IFN-γ (Mabtech, Nacka Sweden) detection antibody was added to each well at a final concentration of 1 μg/ml in PBS. The plates were incubated at room temperature in the dark for 4 h and then washed, as described above. Streptavidin-Alkaline phosphatase (Sigma) was added to each well at a final concentration of 1 μg/ml in PBS and incubated at room temperature in the dark for 2 h. After a final wash with PBS, the substrate, 5-bromo-4-chloro-3-indolyl phosphate and nitro blue tetrazolium, was added to each well and the plates incubated for 30 min at RT. Cells that produced IFN-γ in response to the presence of peptide were detected as purple spots on the nitrocellulose membrane of each well. The spots were counted automatically using a closed-circuit camera (CCD) and ImagePro image analysis software or automated ELISPOT reader (AID, Germany). The T cell precursor frequency for each peptide was based on the total number of PBMC in the well and the number of peptide-specific spots per well, over an average of 3 wells. The number of peptide-specific spots was also calculated by subtracting the negative control values, which consisted of PBMC without peptide (an average of 3 wells), from the test wells.
To determine whether memory CTL responses against the predictive HCMV potential epitopes could be detected in healthy seropositive virus carriers, we used the ELISPOT assay, which allows rapid identification of CTL epitopes without prolonged in vitro culture.
We tested epitopes that were restricted for HLA A1, A3, A24, A26, B7, B8, B27, B35 and B44 in ELISPOT assays, to determine whether memory T cell responses could be detected in healthy HLA-matched virus carriers. PBMC from a cohort of healthy virus carriers (Table 2) were stimulated with individual peptides and the cells that produced IFN-γ were detected. CTL epitopes that were restricted through either HLA A1, A3, A24, A26, B7, B8 or B27, were identified.
Thus, a total of 450 peptides were produced. ELISPOT assays were used to determine whether ex vivo memory T cell responses could be detected in a cohort of 14 healthy virus carriers (Table 2). PBMC were stimulated with individual peptides and the cells that produced IFN-γ were detected.

[2] = tested on: peptide-sensitized autologous PHA blasts or LCLs; set-up: key to CTL response: Y: Yes; ND: Not detected
[3] = overlapping 20mer peptides, Table 4

## CLPLMQKFPKQVMVRIFSTN (human cytomegalovirus IE2 CTL epitope peptide)
CD4+ T cells; donor sixteen
  Responding cells (% CD4): 0%
CD8+ T cells; donor sixteen
  Responding cells (% CD8): 0.15%
[1]; donor sixteen
  ELISPOT Responses (SFC/10^6 PBMC): TC(256) SFC/10^6 PBMC

## DQYVKVYLESFCEDVPSGKL
CD4+ T cells; donor delta
  Responding cells (% CD4): 0%
CD8+ T cells; donor delta
  Responding cells (% CD8): 0.23%
[1]; donor delta
  ELISPOT Responses (SFC/10^6 PBMC): SE(265) SFC/10^6 PBMC

## FPTKDVAL [reference compound]
[2]; predicted epitopes, Table 3
  CTL response: Y
[1]; donor three
  ELISPOT Responses (SFC/10^6 PBMC): MW(445) SFC/10^6 PBMC

## FRNTNRSLEYKNLPFTIPSM
CD4+ T cells; donor sixteen
  Responding cells (% CD4): 0%
CD8+ T cells; donor sixteen
  Responding cells (% CD8): 0.25%
[1]; donor sixteen
  ELISPOT Responses (SFC/10^6 PBMC): TC(187) SFC/10^6 PBMC

## GAAQGDDDVWTSGSDSDEEL
CD4+ T cells; donor eight
  Responding cells (% CD4): 0%
CD8+ T cells; donor eight
  Responding cells (% CD8): 0.01%
[1]; donor eight
  ELISPOT Responses (SFC/10^6 PBMC): JW(248) SFC/10^6 PBMC

## HQVLDEAIKACKTMQVNNKG
CD4+ T cells; donor sixteen
  Responding cells (% CD4): 0%
CD8+ T cells; donor sixteen
  Responding cells (% CD8): 0.18%
[1]; donor sixteen
  ELISPOT Responses (SFC/10^6 PBMC): TC(234) SFC/10^6 PBMC

## ILARNLVPMVATVQGQNLKY
[2]; [3]
  CTL response: Y
[1]; donor four
  ELISPOT Responses (SFC/10^6 PBMC): 500 SFC/10^6 PBMC
[1]; donor seven
  ELISPOT Responses (SFC/10^6 PBMC): 216 SFC/10^6 PBMC
[1]; donor three
  ELISPOT Responses (SFC/10^6 PBMC): MW(229) SFC/10^6 PBMC

## KAAWSLKELHTHQLCPRSSD (human cytomegalovirus IE2 CTL epitope peptide)
CD4+ T cells; donor sixteen
  Responding cells (% CD4): 0%
CD8+ T cells; donor sixteen
  Responding cells (% CD8): 0.08%
[1]; donor sixteen
  ELISPOT Responses (SFC/10^6 PBMC): TC(162) SFC/10^6 PBMC

## LNIPSINVHHYPSAAERKHR
[2]; [3]
  CTL response: Y
[1]; donor sixteen
  ELISPOT Responses (SFC/10^6 PBMC): 222 SFC/10^6 PBMC
[1]; donor twelve
  ELISPOT Responses (SFC/10^6 PBMC): 285 SFC/10^6 PBMC

## NLVPMVATV [reference compound]
[2]; predicted epitopes, Table 3
  CTL response: Y
[1]; cohort of eight HLA A2-positive healthy seropositive donors
  donors recognizing the epitope in ELISPOT: recognized by every donor tested
[1]; donor delta
  ELISPOT Responses (SFC/10^6 PBMC): 170 SFC/10^6 PBMC
[1]; donor fifteen
  ELISPOT Responses (SFC/10^6 PBMC): 356 SFC/10^6 PBMC and 671 SFC/10^6 PBMC
[1]; donor one
  ELISPOT Responses (SFC/10^6 PBMC): 1201 SFC/10^6 PBMC
[1]; donor seven
  ELISPOT Responses (SFC/10^6 PBMC): 1202 SFC/10^6 PBMC
[1]; donor seventeen
  ELISPOT Responses (SFC/10^6 PBMC): 271 SFC/10^6 PBMC
[1]; donor six
  ELISPOT Responses (SFC/10^6 PBMC): 1195 SFC/10^6 PBMC
[1]; donor thirteen
  ELISPOT Responses (SFC/10^6 PBMC): 161 SFC/10^6 PBMC

## QEFFWDANDIYRIFAELEGV
[2]; [3]
  CTL response: Y
[1]; donor epsilon
  ELISPOT Responses (SFC/10^6 PBMC): SC(704) SFC/10^6 PBMC
[1]; donor five
  ELISPOT Responses (SFC/10^6 PBMC): CS(107) SFC/10^6 PBMC
[1]; donor gamma
  ELISPOT Responses (SFC/10^6 PBMC): 295 SFC/10^6 PBMC
[1]; donor twelve
  ELISPOT Responses (SFC/10^6 PBMC): 30 SFC/10^6 PBMC
